# Assays:
# Assay type in all cases: in vivo
# Reticulitermes speratus [1] = assay: Test Example 4: treated filter paper in Petri dish, termite mortality after 25 days
# Experimental: Mortality (%)=(Number of dead termite workers/15 termite workers)×100
# Further, by the Colby's formula, the theoretical value (%) of mortality can be calculated. In a case where the actual mortality (%) is higher than the theoretical value (%), it can be said that the composition of the present invention has a synergistic effect for controlling the house insect pest.
# A filter paper having a diameter of 80 mm was placed in a plastic Petri dish, and 1 ml of a pesticide solution having a predetermined concentration, was dropped thereon. After the treatment, the solvent was sufficiently evaporated, and then, 1 ml of distilled water was impregnated to the treated filter paper, whereupon 10 termite workers (Reticulitermes speratus) were released. The plastic Petri dish was placed in a container having wet cotton laid over the bottom, and the container was maintained at 25° C. for 25 days, whereupon the number of dead termites in the Petri dish was examined, and the mortality was calculated in the same manner as in Test Example 1.
# Coptotermes formosanus [2] = assay: Test Example 14: Japanese red pine poison bait, spread from bait-treated to non-treated termites; conditions: for Mortality TS (Termite soldiers): 5 non-treated soldiers; for Mortality TW (Termite workers): 5 treated + 5 non-treated workers
# Experimental: A Japanese red pine poison bait chemical prepared in the same manner as in Test Example 13, was placed in a cylindrical cup made of acrylic resin (i.e. a cup having a hole with a diameter of 10 mm formed in the bottom and having hard plaster (Dental Stone) set at the bottom in a thickness of 10 mm), and 5 termite workers (Coptotermes formosanus) starved for 3 days, were released and permitted to ingest for 48 hours. Such bait-treated 5 alive termite workers were transferred together with non-treated 5 termite workers and 5 termite soldiers to a cup wherein a filter paper containing water was placed, and they were kept at room temperature of 25° C., whereby the number of dead termite workers and soldiers was examined as the time passed, and the mortality was calculated by the following formula.
# Mortality of workers (%)=(number of dead termite workers/treated 5 termite workers+non-treated 5 termite workers)×100
# Mortality of soldiers (%) (number of dead termite soldiers/non-treated 5 termite soldiers)×100
# Reticulitermes speratus [3] = assay: Test Example 16: pulp (KIMUTAORU) poison bait, termite mortality after 18 days; conditions: pulp (KIMUTAORU) bait 0.1%
# Source text: Fresh pulp (2 cm×2 cm×0.1 cm) was immersed in a methanol solution of a sample compound. Then, it was dried to obtain a fresh pulp poison bait chemical containing 0.1% of the sample compound. This poison bait chemical was placed in a cylindrical cup made of acrylic resin (i.e. a cup having a hole with a diameter of 10 mm formed in the bottom and having hard plaster (Dental Stone) set at the bottom in a thickness of 10 mm), and 20 termite workers (Reticulitermes speratus) were released thereon. The cup was placed in a container having wet cotton laid over the bottom, and the container was maintained at room temperature of 25° C. for 18 days, whereupon the number of dead termites in the cup was examined, and the mortality was calculated.
# A test was carried out in the same manner as the above Test Example 15 except that fresh pulp was changed to pulp (KIMUTAORU, tradename, manufactured by CRECIA Co.).
# Coptotermes formosanus [4] = assay: Test Example 18: dust-coated termite workers mixed with non-treated termites, mortality with time; conditions: 0.5% dust; for Mortality TS (Termite soldiers): 10 non-treated soldiers; for Mortality TW (Termite workers): 15 treated + 10 non-treated workers
# Experimental: 1 mg of each dust prepared in the same manner as in Test Example 17, was uniformly dispersed in a small size glass Petri dish with a diameter of 45 mm, and 15 termite workers (Coptotermes formosanus) were released and treated for dust coating. The treated termite workers were put into a cylindrical cup made of acrylic resin (i.e. a cup having a hole with a diameter of 10 mm formed in the bottom and having hard plaster (Dental Stone) set at the bottom in a thickness of 10 mm) containing a bait log, together with 10 non-treated termite workers and 10 non-treated termite soldiers. The cup was placed in a container having wet cotton laid over the bottom, and the container was maintained at room temperature of 25° C., whereby the number of dead termites in the cup was examined as the time passed, and the mortality was calculated by the following formula.
# Mortality of termite workers (%)=(Number of dead termite workers/15 treated termite workers+10 non-treated termite workers)×100
# Mortality of termite soldiers (%) (Number of dead termite soldiers/10 non-treated termite soldiers)×100
# Lasius japonicus = assay: Test Example 22: cotton ball with compound in 10% cane sugar solution, ant mortality
# Experimental: 10 Ants (Lasius japonicus) were put into a test tube together with a cotton ball impregnated with 0.5 ml of a solution containing a sample compound in a predetermined concentration and containing 10% of cane sugar. […]
smiles,measurement,setting,value
"CC(=NN=C(Cc1ccc(C(F)(F)F)cc1)c1ccc(F)cc1)N(C)C [Compound No. II-2, [4′-fluoro-2-(4-trifluoromethylphenyl)acetophenone]N′-[1-(dimethylamino)ethylidene]hydrazone]",Mortality,Reticulitermes speratus [1]; II-2 5 ppm alone,0%
same,Mortality,Reticulitermes speratus [1]; II-2 10 ppm alone,10%
same,Mortality TS (Termite soldiers),"Coptotermes formosanus [2]; bait 0.05%, 6 Days later",0%
same,Mortality TW (Termite workers),"Coptotermes formosanus [2]; bait 0.05%, 6 Days later",30%
same,Mortality TS (Termite soldiers),"Coptotermes formosanus [2]; bait 0.05%, 8 Days later",0%
same,Mortality TW (Termite workers),"Coptotermes formosanus [2]; bait 0.05%, 8 Days later",30%
same,Mortality TS (Termite soldiers),"Coptotermes formosanus [2]; bait 0.05%, 15 Days later",40%
same,Mortality TW (Termite workers),"Coptotermes formosanus [2]; bait 0.05%, 15 Days later",70%
same,Mortality TS (Termite soldiers),"Coptotermes formosanus [2]; bait 0.1%, 6 Days later",0%
same,Mortality TW (Termite workers),"Coptotermes formosanus [2]; bait 0.1%, 6 Days later",50%
same,Mortality TS (Termite soldiers),"Coptotermes formosanus [2]; bait 0.1%, 8 Days later",20%
same,Mortality TW (Termite workers),"Coptotermes formosanus [2]; bait 0.1%, 8 Days later",60%
same,Mortality TS (Termite soldiers),"Coptotermes formosanus [2]; bait 0.1%, 15 Days later",100%
same,Mortality TW (Termite workers),"Coptotermes formosanus [2]; bait 0.1%, 15 Days later",100%
same,Mortality,Reticulitermes speratus [3],100%
same,Mortality TS (Termite soldiers),Coptotermes formosanus [4]; 1 Day later,0%
same,Mortality TW (Termite workers),Coptotermes formosanus [4]; 1 Day later,0%
same,Mortality TS (Termite soldiers),Coptotermes formosanus [4]; 8 Days later,0%
same,Mortality TW (Termite workers),Coptotermes formosanus [4]; 8 Days later,4%
same,Mortality TS (Termite soldiers),Coptotermes formosanus [4]; 15 Days later,40%
same,Mortality TW (Termite workers),Coptotermes formosanus [4]; 15 Days later,52%
same,Mortality TS (Termite soldiers),Coptotermes formosanus [4]; 19 Days later,100%
same,Mortality TW (Termite workers),Coptotermes formosanus [4]; 19 Days later,100%
same,Mortality,"Lasius japonicus; 10 ppm, 1 Day later",0%
same,Mortality,"Lasius japonicus; 10 ppm, 2 Days later",0%
same,abnormal ratio,"Lasius japonicus; 10 ppm, 2 Days later",20%
same,Mortality,"Lasius japonicus; 10 ppm, 3 Days later",40%
same,Mortality,"Lasius japonicus; 10 ppm, 8 Days later",80%
same,Mortality,"Lasius japonicus; 10 ppm, 11 Days later",100%
same,Mortality,"Lasius japonicus; 50 ppm, 1 Day later",30%
same,abnormal ratio,"Lasius japonicus; 50 ppm, 1 Day later",70%
same,Mortality,"Lasius japonicus; 50 ppm, 2 Days later",100%
same,Mortality,"Lasius japonicus; 50 ppm, 3 Days later",100%
same,Mortality,"Lasius japonicus; 50 ppm, 8 Days later",100%
same,Mortality,"Lasius japonicus; 50 ppm, 11 Days later",100%

# From patent US7655677B2, “Composition and method for controlling house insect pest” (priority 2002, dated 2010)
